Activity calls are given as the source filed them.
Assays:
Protein RecA = target: T1, Protein RecA (Mycobacterium tuberculosis, UniProt P9WHJ3); test: Fluorescence Cell-Free Homogeneous Dose Retest to Identify Inhibitors of RecA-Intein Splicing Activity. [Related pubchem assays (depositor defined):AID2097, AID2223, AID489010, AID492950]; type: functional
T1 sequence (P9WHJ3 whole entry): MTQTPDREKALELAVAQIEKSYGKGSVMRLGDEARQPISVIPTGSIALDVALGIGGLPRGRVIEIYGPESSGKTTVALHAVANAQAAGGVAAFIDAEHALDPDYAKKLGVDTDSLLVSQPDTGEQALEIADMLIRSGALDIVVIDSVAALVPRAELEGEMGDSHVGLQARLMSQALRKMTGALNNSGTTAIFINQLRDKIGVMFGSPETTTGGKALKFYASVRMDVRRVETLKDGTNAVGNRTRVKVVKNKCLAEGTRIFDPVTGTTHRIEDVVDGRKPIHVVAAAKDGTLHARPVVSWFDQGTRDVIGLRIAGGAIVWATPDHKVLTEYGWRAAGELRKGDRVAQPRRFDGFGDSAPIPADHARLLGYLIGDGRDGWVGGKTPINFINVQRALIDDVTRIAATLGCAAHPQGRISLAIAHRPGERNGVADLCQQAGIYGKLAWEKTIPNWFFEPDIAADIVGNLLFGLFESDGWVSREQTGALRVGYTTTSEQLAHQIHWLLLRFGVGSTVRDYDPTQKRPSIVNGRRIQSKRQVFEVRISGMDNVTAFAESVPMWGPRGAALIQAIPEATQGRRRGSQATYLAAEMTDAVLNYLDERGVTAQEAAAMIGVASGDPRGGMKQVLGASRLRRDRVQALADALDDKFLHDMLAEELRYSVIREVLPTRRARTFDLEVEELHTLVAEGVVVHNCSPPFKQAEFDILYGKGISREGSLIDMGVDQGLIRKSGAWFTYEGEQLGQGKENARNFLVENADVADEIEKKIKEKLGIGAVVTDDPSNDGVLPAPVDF

INS1 = test: INS-1E survival protection against cytokine death – cell-based, luminescence, retest, dose response (AID 449756); type: functional; conditions: Rattus norvegicus;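 also: cell death triggered by IL-1 beta plus TNF-alpha plus IFN-gamma mixture; protective hits raise ATP signal compared with cytokine alone wells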
SUMO-activating enzyme = SUMO-activating enzyme (Homo sapiens, UniProt Q9UBT2); test: blockers of SAE1/SAE2–UBC9 SUMO transfer – biochemical, HTRF, uHTS, primary screen (AID 2006); type: protein-complex assay
[1] = target: T2, Sentrin-specific protease 8 (Homo sapiens, UniProt Q96LD8); test: inhibition of human SENP8 cleavage activity – biochemical, luminescence, SAR follow-up (AID 504501); type: functional
T2 sequence (Q96LD8 whole entry): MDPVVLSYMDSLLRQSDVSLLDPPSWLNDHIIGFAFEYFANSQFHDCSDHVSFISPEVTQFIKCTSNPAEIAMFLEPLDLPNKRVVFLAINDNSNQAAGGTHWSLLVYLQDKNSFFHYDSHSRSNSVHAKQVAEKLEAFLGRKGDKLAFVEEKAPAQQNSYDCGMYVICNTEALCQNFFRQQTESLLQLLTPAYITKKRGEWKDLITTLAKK

Caspase-3 = target: T3, Caspase-3 (Homo sapiens, UniProt P42574); test: SAR Analysis of small molecule inhibitors of Sentrin-specific proteases (SENPs) using a Caspase-3 Selectivity assay. [Related pubchem assays (depositor defined):AID2540, AID2599, AID434973, AID489001]; type: functional
T3 sequence (P42574 whole entry): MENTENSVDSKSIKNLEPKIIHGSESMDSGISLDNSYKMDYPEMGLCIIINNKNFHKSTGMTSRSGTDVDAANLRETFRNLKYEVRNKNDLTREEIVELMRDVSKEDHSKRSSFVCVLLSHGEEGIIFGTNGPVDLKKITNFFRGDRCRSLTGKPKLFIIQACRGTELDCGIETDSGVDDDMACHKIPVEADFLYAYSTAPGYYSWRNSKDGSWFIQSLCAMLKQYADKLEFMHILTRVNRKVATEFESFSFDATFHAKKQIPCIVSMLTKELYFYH

[2] = target: Tyrosine-protein kinase JAK2 (Homo sapiens, UniProt O60674); type: functional;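 also: JAK2 tested as one member of a kinase panel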
[3] = target: Tyrosine-protein kinase Lck (Homo sapiens, UniProt P06239); type: functional;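 also: lck was assayed as one member of a kinase panel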
Activin receptor type-1 = Activin receptor type-1 (Homo sapiens, UniProt Q04771); test: Navigating the Kinome. Panel member name: ACVR1; type: functional
[4] = target: Serine/threonine-protein kinase PAK 4 (Homo sapiens, UniProt O96013); type: functional;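 also: value obtained within a kinome profiling panel in which PAK4 was one of the panel members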
[5] = target: Casein kinase I isoform alpha (Homo sapiens, UniProt P48729); type: functional
[6] = target: Mitogen-activated protein kinase 9 (Homo sapiens, UniProt P45984); type: functional;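 also: value from a kinome panel profiling assay, MAPK9 panel entry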
[7] = target: High affinity nerve growth factor receptor (Homo sapiens, UniProt P04629); type: functional;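 also: NTRK1 tested as one member of a kinome-wide profiling panel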
Activated CDC42 kinase 1 = Activated CDC42 kinase 1 (Homo sapiens, UniProt Q07912); test: Navigating the Kinome. Panel member name: ACK1; type: functional
[8] = target: Insulin-like growth factor 1 receptor (Homo sapiens, UniProt P08069); test: Navigating the Kinome. Panel member name: IGF1R; type: functional
[9] = target: Rho-associated protein kinase 1 (Homo sapiens, UniProt Q13464); type: functional;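 also: measured within a broad kinome-wide panel profiling many kinases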
[10] = target: Tyrosine-protein kinase Fyn (Homo sapiens, UniProt P06241); type: functional
[11] = target: Calcium/calmodulin-dependent protein kinase type II subunit alpha (Homo sapiens, UniProt Q9UQM7); test: Navigating the Kinome. Panel member name: CAMK2A; type: functional
[12] = target: Mitogen-activated protein kinase 14 (Homo sapiens, UniProt Q16539); type: functional;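 also: part of a kinome-wide panel, MAPK14 entry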
[13] = target: Cyclin-dependent kinase 19 (Homo sapiens, UniProt Q9BWU1); test: Navigating the Kinome. Panel member name: CDC2L6; type: functional
Sequence of Cyclin-dependent kinase 19 (Q9BWU1 whole entry): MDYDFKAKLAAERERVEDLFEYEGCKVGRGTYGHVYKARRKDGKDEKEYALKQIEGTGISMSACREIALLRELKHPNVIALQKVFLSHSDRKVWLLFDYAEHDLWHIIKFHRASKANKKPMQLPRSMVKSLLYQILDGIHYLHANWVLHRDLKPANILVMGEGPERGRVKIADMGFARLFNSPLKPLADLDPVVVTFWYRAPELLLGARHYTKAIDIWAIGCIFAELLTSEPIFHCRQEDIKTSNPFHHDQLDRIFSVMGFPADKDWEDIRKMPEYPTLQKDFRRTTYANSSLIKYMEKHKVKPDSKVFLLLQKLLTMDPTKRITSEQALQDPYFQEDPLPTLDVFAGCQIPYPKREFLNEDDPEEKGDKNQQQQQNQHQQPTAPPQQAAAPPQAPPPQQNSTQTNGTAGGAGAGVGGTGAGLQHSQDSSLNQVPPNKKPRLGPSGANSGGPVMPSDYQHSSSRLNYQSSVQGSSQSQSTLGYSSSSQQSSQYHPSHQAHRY

Sequence of SUMO-activating enzyme (Q9UBE0 whole entry): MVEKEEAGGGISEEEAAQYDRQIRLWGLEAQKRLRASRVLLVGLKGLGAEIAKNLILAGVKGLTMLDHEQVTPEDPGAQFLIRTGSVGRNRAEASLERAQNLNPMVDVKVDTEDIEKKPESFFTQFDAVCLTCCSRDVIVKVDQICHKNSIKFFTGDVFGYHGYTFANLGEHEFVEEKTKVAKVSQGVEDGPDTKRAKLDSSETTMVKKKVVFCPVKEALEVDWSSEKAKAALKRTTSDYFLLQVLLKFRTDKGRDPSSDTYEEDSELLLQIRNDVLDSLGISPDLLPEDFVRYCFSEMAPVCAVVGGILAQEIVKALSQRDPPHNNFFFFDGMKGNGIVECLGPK
Sequence of SUMO-activating enzyme (Q9UBT2 whole entry): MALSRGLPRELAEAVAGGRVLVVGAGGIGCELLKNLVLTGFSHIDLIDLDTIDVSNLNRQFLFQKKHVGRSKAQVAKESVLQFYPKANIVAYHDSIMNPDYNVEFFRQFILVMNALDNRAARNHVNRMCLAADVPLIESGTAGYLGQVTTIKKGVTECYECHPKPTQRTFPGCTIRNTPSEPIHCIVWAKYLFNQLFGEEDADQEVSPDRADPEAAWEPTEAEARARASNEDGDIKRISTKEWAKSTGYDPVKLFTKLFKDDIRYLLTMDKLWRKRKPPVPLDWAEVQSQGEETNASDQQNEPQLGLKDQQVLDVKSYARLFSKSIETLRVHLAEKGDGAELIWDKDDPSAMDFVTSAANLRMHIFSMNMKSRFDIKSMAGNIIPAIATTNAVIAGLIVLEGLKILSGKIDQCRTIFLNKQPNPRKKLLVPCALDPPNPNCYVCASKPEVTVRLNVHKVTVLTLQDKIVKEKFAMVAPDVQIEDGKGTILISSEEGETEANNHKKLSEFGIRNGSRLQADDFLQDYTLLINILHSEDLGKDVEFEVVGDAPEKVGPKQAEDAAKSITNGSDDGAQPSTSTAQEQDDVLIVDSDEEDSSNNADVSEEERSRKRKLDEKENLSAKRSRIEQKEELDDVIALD
Sequence of High affinity nerve growth factor receptor (P04629 whole entry): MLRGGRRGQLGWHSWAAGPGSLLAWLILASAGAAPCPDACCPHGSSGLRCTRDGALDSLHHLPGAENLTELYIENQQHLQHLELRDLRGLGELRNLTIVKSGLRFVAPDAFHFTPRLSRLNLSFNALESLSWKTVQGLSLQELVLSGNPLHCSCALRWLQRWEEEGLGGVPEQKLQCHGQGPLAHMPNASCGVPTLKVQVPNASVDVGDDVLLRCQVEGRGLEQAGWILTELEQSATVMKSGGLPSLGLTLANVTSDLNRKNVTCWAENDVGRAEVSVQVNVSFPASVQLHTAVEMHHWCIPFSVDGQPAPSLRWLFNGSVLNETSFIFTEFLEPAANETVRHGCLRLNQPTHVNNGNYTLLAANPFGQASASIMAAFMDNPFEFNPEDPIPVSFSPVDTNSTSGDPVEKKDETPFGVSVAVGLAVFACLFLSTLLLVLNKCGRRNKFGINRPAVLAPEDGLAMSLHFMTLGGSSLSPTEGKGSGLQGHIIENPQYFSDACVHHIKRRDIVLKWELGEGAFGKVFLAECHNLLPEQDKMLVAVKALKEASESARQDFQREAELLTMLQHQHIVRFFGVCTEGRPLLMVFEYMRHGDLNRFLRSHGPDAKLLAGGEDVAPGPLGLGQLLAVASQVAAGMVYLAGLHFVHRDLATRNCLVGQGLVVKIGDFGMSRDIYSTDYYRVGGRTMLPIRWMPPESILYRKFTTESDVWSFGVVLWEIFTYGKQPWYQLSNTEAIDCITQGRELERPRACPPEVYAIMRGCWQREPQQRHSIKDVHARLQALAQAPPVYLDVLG
Sequence of Mitogen-activated protein kinase 14 (Q16539 whole entry): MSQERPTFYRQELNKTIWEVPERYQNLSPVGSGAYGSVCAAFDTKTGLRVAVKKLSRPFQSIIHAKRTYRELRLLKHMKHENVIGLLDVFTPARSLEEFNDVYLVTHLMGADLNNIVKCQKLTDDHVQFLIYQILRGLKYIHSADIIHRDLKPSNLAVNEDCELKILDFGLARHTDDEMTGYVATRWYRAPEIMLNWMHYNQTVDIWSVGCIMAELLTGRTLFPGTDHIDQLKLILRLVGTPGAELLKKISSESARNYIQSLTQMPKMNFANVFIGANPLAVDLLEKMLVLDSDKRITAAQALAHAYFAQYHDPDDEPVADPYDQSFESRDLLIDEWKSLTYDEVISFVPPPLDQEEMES
Sequence of Activin receptor type-1 (Q04771 whole entry): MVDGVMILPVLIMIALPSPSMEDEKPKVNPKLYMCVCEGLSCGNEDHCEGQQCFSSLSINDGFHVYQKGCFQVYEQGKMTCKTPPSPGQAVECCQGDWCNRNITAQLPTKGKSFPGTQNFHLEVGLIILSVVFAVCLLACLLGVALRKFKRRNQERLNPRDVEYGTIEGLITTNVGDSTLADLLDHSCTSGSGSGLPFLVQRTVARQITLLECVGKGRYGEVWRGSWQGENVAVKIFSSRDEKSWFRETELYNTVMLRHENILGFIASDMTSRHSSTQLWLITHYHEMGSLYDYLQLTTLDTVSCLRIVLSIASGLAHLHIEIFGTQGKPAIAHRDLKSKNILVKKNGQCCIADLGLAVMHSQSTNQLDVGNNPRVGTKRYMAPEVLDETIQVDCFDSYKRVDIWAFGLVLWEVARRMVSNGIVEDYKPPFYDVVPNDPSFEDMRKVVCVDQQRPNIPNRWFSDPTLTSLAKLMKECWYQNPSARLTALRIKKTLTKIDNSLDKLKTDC
Sequence of Rho-associated protein kinase 1 (Q13464 whole entry): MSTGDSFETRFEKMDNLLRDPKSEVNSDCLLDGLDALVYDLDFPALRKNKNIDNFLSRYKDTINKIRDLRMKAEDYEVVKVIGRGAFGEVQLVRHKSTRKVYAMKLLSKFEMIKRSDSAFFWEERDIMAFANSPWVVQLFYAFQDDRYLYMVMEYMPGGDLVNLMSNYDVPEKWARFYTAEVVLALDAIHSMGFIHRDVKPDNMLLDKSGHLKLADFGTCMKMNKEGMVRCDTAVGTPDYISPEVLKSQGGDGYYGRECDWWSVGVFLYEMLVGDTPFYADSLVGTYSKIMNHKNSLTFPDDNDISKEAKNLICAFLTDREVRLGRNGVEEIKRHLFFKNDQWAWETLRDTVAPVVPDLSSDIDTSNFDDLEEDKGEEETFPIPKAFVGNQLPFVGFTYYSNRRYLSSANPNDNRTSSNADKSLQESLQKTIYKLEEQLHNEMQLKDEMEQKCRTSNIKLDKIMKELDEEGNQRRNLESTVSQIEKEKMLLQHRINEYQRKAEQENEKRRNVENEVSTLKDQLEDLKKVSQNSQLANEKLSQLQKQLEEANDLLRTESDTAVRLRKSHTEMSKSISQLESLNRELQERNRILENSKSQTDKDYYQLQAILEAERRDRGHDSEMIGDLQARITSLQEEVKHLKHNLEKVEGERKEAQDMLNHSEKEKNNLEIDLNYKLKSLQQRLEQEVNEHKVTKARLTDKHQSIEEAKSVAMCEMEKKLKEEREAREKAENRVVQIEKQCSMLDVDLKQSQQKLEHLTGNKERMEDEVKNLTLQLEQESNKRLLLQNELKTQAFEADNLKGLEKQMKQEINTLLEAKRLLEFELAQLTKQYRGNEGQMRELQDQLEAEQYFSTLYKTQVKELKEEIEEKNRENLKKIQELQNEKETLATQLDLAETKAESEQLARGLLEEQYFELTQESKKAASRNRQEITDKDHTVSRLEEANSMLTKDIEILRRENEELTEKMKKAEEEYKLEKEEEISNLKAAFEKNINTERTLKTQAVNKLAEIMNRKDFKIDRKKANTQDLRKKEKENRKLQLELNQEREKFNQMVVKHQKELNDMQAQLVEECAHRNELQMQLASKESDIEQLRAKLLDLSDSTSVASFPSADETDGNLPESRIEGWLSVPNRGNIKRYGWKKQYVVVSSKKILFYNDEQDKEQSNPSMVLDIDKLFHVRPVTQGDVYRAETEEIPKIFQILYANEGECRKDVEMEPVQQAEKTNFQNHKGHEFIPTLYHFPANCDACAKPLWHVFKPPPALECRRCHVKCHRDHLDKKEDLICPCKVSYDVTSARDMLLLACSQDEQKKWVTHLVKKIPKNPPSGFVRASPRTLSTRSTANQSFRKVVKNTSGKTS
Sequence of Calcium/calmodulin-dependent protein kinase type II subunit alpha (Q9UQM7 whole entry): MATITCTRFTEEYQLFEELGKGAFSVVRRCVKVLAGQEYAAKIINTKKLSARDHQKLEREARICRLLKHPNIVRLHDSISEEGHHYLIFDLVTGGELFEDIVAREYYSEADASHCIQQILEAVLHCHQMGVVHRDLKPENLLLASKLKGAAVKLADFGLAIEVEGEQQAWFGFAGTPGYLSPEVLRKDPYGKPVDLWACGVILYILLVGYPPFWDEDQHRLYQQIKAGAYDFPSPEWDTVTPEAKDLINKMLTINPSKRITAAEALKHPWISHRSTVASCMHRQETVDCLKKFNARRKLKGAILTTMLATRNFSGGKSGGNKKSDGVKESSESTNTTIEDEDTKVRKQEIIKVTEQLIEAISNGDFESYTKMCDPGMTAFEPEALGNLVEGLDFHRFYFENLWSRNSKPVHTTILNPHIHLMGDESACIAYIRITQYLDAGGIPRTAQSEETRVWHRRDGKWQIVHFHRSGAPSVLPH

## O=C(NC1=C(Nc2ccc(F)cc2)C(=O)c2ccccc2C1=O)c1ccc(Cl)cc1
Protein RecA
  EC50: 25900 nM (inconclusive)
INS1
  AC50: 5260 nM (active)

## Oc1nc(Nc2ccc(F)cc2)cc2ccccc12
SUMO-activating enzyme
  IC50: 3380 nM (active)
Protein RecA
  EC50: 1210 nM (active)

## COc1cc2cc(NC(C)=O)cc(NCc3ccccc3)c2cc1OC
[1]
  IC50: > 99000 nM (inactive)
Caspase-3
  IC50: > 99000 nM (inactive)

## NC(COc1cncc(-c2ccc3c(c2)C(=Cc2ccc[nH]2)C(=O)N3)c1)Cc1ccccc1 (stereo not drawn)
[2]
  Ki: 63.1 nM (active)
[3]
  Ki: 251 nM (active)
Activin receptor type-1
  Ki: 794 nM (active)
[4]
  Ki: 31.6 nM (active)
[5]
  Ki: 2000 nM (active)
[6]
  Ki: 1260 nM (active)
[7]
  Ki: 63.1 nM (active)
Activated CDC42 kinase 1
  Ki: 1580 nM (active)
[8]
  Ki: 1000 nM (active)
[9]
  Ki: 3.98 nM (active)
[10]
  Ki: 398 nM (active)
[11]
  Ki: 63.1 nM (active)
[12]
  Ki: 631 nM (active)

## O=C1Nc2cc(-c3ccc(O)cc3)ccc2C1=Cc1ccc[nH]1
[2]
  Ki: 5.01 nM (active)
[3]
  Ki: 1000 nM (active)
Activin receptor type-1
  Ki: 3160 nM (active)
[4]
  Ki: > 5010 nM (inactive)
[5]
  Ki: > 3980 nM (inactive)
[6]
  Ki: > 3980 nM (inactive)
[7]
  Ki: 2000 nM (active)
Activated CDC42 kinase 1
  Ki: > 3980 nM (inactive)
[8]
  Ki: > 2510 nM (inactive)
[13]
  Ki: > 100000 nM (inactive)
[9]
  Ki: > 3980 nM (inactive)
[10]
  Ki: > 6310 nM (inactive)
[11]
  Ki: 2510 nM (active)
[12]
  Ki: 2510 nM (active)

## CCN(CC)CCOc1ccc2c(c1)C(=NNC(=O)c1ccccn1)c1cc(OCCN(CC)CC)ccc1-2
INS1
  AC50: 2970 nM (active)

## CN(C)c1cc(N/N=C\c2ccccc2)nc(N(C)C)n1
SUMO-activating enzyme
  IC50: 15500 nM (active)
[1]
  IC50: 31700 nM (active)
Caspase-3
  IC50: 79300 nM (active)

## O=C1Cc2cc(-c3ccccc3)cnc2N1
[13]
  Ki: > 100000 nM (inactive)
